We go through one molecule from patent US6586596B2, “Acetylcholine enhancers” (priority 1998, dated 2003).

One data set addresses T1, 5-HT3 receptor (Mus musculus, UniProt P23979).
T1 construct: The receptor source was NIE-115 cells; host or cells: NIE-115 cells
T1 sequence (P23979 24-489): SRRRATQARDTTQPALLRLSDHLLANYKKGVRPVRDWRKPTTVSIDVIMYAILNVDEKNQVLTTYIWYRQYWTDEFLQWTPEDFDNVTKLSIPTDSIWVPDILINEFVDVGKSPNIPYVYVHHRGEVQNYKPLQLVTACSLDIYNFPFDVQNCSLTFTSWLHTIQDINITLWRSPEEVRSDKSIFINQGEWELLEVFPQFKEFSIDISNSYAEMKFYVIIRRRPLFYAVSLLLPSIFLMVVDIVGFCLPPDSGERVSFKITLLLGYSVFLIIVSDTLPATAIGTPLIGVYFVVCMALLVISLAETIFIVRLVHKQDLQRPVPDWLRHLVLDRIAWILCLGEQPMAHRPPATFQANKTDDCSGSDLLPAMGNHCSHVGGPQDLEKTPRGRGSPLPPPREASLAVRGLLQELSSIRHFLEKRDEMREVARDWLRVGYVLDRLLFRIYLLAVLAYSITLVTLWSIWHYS
In words: serotonin 5-HT3 binding assay (NovaScreen), NIE-115 cells. As to conditions: 25° C., 60 minutes. The procedure:
Binding affinity of a variety of compounds, including Cm.A, for the 5-HT3 receptor was investigated using a commercially available serotonin 5-HT3 binding assay (NovaScreen, Hanover, Md.). The receptor source was NIE-115 cells (See Lunnis, S. C. R. and Kilparick, G. J., 189: Evr. Jrnl. Pharmacol. 223 (1990); and Hoyer, D. and Heijt, H. C., 33 Mol. Pharmacol., 303 (1988)). The reference compound utilized was “MDL 72222,” a 5-HT3 receptor antagonist. Reactions were carried out in 20 mM HEPES (pH 7.4) containing 150 mM NaCl at 25° C. for 60 minutes. The reaction was terminated by rapid vacuum filtration onto glass fiber filters. Radioactivity trapped onto the filters was determined and compared with the control values.

For the next data set, the system named is Cynomologous monkeys. Description: Hepatotoxic analysis, two-week oral study. On Autopsy, organ weight and histopathology: key: − no remarkable change; ↑ increase; ↓ decrease; + slight; ++ severe (diarrhea). On Blood biochemistry: key: − no remarkable change; ↑ increase; ↓ decrease; + slight; ++ severe (diarrhea). On Body weight: key: − no remarkable change; ↑ increase; ↓ decrease; + slight; ++ severe (diarrhea). The data set is classed as in vivo. As to conditions: 5 mg/kg/day oral, 2 weeks. The source says:
The following parameters were examined: body weight, clinical signs, food consumption, blood biochemistry (GOT, GPT, ALP, LDH, γ-GTP, ChE, Bil, T.Pro, Alb, A/G ratio, T.Cho, NEFA, TG). After the administration period, the animals were sacrificed and autopsied. Organs and tissues were weighed, then examined histopathologically.

Data set [1] concerns scopolamine-induced spatial learning deficit. Description: Water maze, scopolamine-induced deficit in spatial learning. As to conditions: p.o. 60 minutes before each trial; Cm.A 1.0 mg/kg/day; scopolamine 0.5 mg/kg i.p. The data set is classed as in vivo, rats. The procedure:
A total of 6 trials (2 trials on 1st day, and 1 trial after 2nd day) were conducted to observe the effects of the test compounds. Scopolamine (0.5 mg/kg, i.p.) and the test compounds (p.o.) were administered 30 and 60 minutes before each trial, respectively.

A further data set relates to BF-lesioned rats. Description: Water maze, BF lesion-induced deficit in spatial learning. As to conditions: oral; Cm.A 0.3, 1.0 and 3.0 mg/kg/day, THA 1.0 mg/kg/day, E2020 0.3 and 1.0 mg/kg/day.
The target of the next data set is T2, 5HT3 receptor (Rattus norvegicus, UniProt P35563).
T2 construct: from tissue; host or cells: rat brain sections (amygdala)
T2 sequence (P35563 24-483): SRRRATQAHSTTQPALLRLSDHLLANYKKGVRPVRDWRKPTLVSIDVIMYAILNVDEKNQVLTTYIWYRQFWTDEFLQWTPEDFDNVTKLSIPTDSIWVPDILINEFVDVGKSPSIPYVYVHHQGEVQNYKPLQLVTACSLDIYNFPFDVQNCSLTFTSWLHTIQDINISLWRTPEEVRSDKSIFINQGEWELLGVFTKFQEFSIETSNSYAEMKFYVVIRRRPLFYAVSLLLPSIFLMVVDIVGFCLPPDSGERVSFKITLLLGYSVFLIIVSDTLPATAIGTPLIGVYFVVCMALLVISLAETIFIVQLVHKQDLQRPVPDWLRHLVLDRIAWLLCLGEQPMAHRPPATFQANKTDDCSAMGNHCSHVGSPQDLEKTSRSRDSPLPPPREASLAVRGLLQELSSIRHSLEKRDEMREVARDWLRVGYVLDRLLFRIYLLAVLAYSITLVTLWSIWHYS
Description: Ex vivo binding of 5HT3 receptors, (3H)-zacopride autoradiography of brain sections. The data set is classed as in vivo, Sprague-Dawley rats. As to conditions: 10 mg/kg i.p., 30 minutes, amygdala, 0.5 nM (3H)-zacopride. On the procedure:
Animals (Sprague-Dawley rats) were injected intraperitoneally with 10 mg/kg Cm. A (in 90% ethanol, 10% water, vehicle) (n=3) or vehicle (n=3). After thirty minutes animals were sacrificed and brains were rapidly dissected and frozen in isopentane maintained at −42° C. Sections (horizontal and coronal) were prepared on a cryostat and maintained at −20° C.
Brain sections were removed from storage and thawed at room temperature for 30 minutes. Total 5HT3 receptor binding was measured in sections incubated with 0.5 nM (^3H)-zacopride (Amerhsam; zacorpide is a 5-HT3 selective ligand) in 50 mM HEPES/TRIS buffer. Nonspecific binding was determined in adjacent sections incubated in the presence of radioligand and 500 nM 5-HT. After a 10 minute incubation at room temperature, sections were washed in icecold buffer (2×1 minute) followed by a 10 second rinse in ice-cold distilled water. Sections were then dried in a stream of cold air overnight. After drying, sections were exposed to x-ray film (Kodak Hyperfilm) and exposed for 4 months.
Autoradiograms were quantified using an automated image analysis system, DAGE camera IMAGE software. Mean optical density measurements were obtained from four individual measurements per group, control (vehicle injected) and Cm. A; background measurements were obtained from an area of x-ray on which no tissue was exposed. […]

The test system of data set [2] is extracellular levels of ACh in striatum. In words: ACh release in striatum, microdialysis in freely moving rats. As to conditions: for ACh content in perfusate increased up to: striatum, young rats (2 month-old Wistar). The data set is classed as in vivo. On the procedure: ACh content in perfusate obtained from striatum (Bregma, A: 0.2 mm, L: 3.0 mm, H: 4.0 mm) of brain were continuously detected by means of HPLC and ECD through the microdialysis system using freely moving rats. See Messamore, E., et al, 32 Neuropharmacol. […] After an equilibration period of more than 2 hours, five fractions were allowed to obtain basal ACh content. Compounds were injected i.p., and thereafter, a microdialytic analysis was conducted for 3 hours.

Description for BF-lesioned rats: For each training trial, the rat was placed in the water (22° C.) such that the animal faced the wall of a circular pool (150 cm in diameter, 45 cm in height), and started at one of five starting points (selected randornly). In each trial, the latency period to escape onto the hidden platform (fixed in the middle of one quadrant, 2 cm below the surface of water) was recorded. These procedures were repeated once or twice a day during the experimental period.

For orientation: IC50 means the concentration that gives 50% inhibition. What is called Ki is a measure of affinity in units of concentration, obtained from inhibition or displacement. In turn, `COc1c2c(nc3ccccc13)CN(CCC1CCN(Cc3ccccc3)CC1)C2=O` [Cm.A, 2-[2-(1-benzylpiperizin-4-yl)ethyl]-2,3-dihydro-9-methoxy-1H-pyrrolo[3,4-b]quinolin-1-one hemifumarate] yielded an IC50 at 5-HT3 receptor (IC50, 20 mM HEPES pH 7.4, 150 mM NaCl) of 1180 nM. Further, the affinity at 5-HT3 receptor (Ki, 20 mM HEPES pH 7.4, 150 mM NaCl), expressed as Ki, was 552 nM. For the same molecule, in the data set on Cynomologous monkeys, the “clinical signs during the dosing period” value is reported as “caused soft stools, but to a lesser extent than the other two compounds” and the hepatotoxicity entry was “no hepatotoxicity”. Moreover, in the data set with Cynomologous monkeys (F), the “Autopsy, organ weight and histopathology” value is reported as “−”; the Blood biochemistry result is on record as “−”; the Body weight entry was “−”; the Clinical signs softstool result was “+”. In addition, in the data set on Cynomologous monkeys (F), the Clinical signs vomiting result is on record as “−” and the Food consumption entry was “−”. For the same molecule, in the data set with Cynomologous monkeys (M), the “Autopsy, organ weight and histopathology” value is “−”; the Blood biochemistry entry was “−”; the Body weight entry is recorded as “−”; the Clinical signs softstool entry is “+”. Further, in the data set with Cynomologous monkeys (M), the Clinical signs vomiting entry is given as “−” and the Food consumption entry is reported as “−”. The “deficit in spatial learning (escape latency)” value in data set [1] is listed as “improved the deficit in spatial learning induced by scopolamine”. In the data set with BF-lesioned rats, the “deficit of spatial learning (escape latency)” value was “improved the deficit of spatial learning”. Further, the “occupancy of 5HT3 receptor sites within the brain” value on 5HT3 receptor is recorded as “occupies 5HT3 receptor sites within the brain”. The “centrally acting cholinergic symptoms (tremor, chewing and yawning)” value in data set [2] (striatum study, young rats, i.p., data not shown) is reported as “few centrally acting cholinergic symptoms”. Moreover, the “ACh content in perfusate increased up to” value in data set [2] (10 mg/kg i.p.) was 131%. Further, the “ACh content in perfusate increased up to” value in data set [2] (30 mg/kg i.p.) is 369%.
